Source: patent US9504671B2, “Pharmaceutical compositions of spiro-oxindole compound for topical administration and their use as therapeutic agents” (Xenon Pharmaceuticals Inc., priority 2010, dated 2016)
Like-named read-outs stand apart in the source and are kept apart here.

Key:
[1] = system: CCI-induced neuropathic pain model; assay: time course of efficacy in neuropathic pain model, Chronic Constriction Injury, von Frey; format: in vivo, Sprague-Dawley rats
Description: Neuropathic pain is characterized by spontaneous pain and stimulus-evoked allodynia and hyperalgesia. Pharmaceutical compositions of the invention were evaluated in Chronic Constriction Injury model using Sprague-Dawley rats as described below.
An approximately 3 cm incision was made through the skin and the fascia at the mid thigh level of a rat's left hind leg using a no. 10 scalpel blade. The left sciatic nerve was exposed via blunt dissection through the biceps femoris with care to minimize haemorrhagia. Four loose ligatures were tied along the sciatic nerve using four chromic gut sutures at intervals of 1 mm to 2 mm apart. The tension of the loose ligatures was tight enough to induce slight constriction of the sciatic nerve when viewed under a dissection microscope at a magnification of 4 fold. As sham controls, the right sciatic nerve was exposed and manipulated in the same manner as described above, except sutures were not tied onto the nerve. Antibacterial ointment was applied directly into the wound, and the muscle was closed using sterilized sutures. Betadine® was applied onto the muscle and its surroundings, followed by skin closure with surgical clips.
A painful neuropathy was allowed to develop for at least 14 days in the ipsilateral leg as determined by lower paw withdrawal thresholds to a mechanical stimulus. Only those with significant hyperalgesia, as determined by reduced threshold of paw withdrawal to the von Frey filament, measured in grams, were enrolled in the study.
The response thresholds of animals to tactile stimuli were measured using the Model 2290 Electrovonfrey anesthesiometer (IITC Life Science, Woodland Hills, Calif.). Animals were placed in an elevated Plexiglass enclosure set on a mire mesh surface. After 15 minutes of accommodation, a von Frey hair was applied perpendicularly to the plantar surface of the ipsilateral hind paws of the animals with sufficient force, measured in grams, to elicit a crisp response of the paw. The response indicated a withdrawal from the painful stimulus and constituted the efficacy endpoint. The force (in grams) required to elicit a crisp withdrawal response was recorded before dosing as a baseline measurement, and at multiple time points post-dosing.
Three days prior to baseline measurement, animals were anaesthetized under isoflurane and the whole of the ipsilateral hind legs, including the upper sciatic notch thigh area, ankle and foot, was shaved. The animals were then randomly assigned to one of 4 different test groups including a vehicle control group, a 5% (w/v) Lidocaine (Xylocaine®), and 2 pharmaceutical compositions of the invention comprising COMPOUND A at 4% (w/w) containing either 5% or 10% Transcutol® P. After baseline measurement, 100 mg of the test composition was applied on the entire shaved area. The animals were then placed in plastic tubes for at least 15 minutes, to prevent early removal/ingestion of drug. Subsequently, animals were placed in the Plexiglas enclosure 15 minutes before von Frey measurement at the respective time points. Von Frey withdrawal thresholds were measured as the mean of several independent determinations made within 1-2 minutes of each other on the affected paw of each animal at 0.5, 1 and 2 hours post dosing.

[2] = system: STZ-induced neuropathic pain model; assay: STZ model of diabetic neuropathy, von Frey; format: in vivo, male Sprague-Dawley rats; settings: 4% (w/w) topical composition, 50 mg on left foot, 30 minutes post-dosing, p<0.05
Source text: This study evaluates the efficacy of a pharmaceutical composition of the invention in the STZ-induced neuropathic pain model in male Sprague-Dawley rats, following acute dosing, as compared with a 5% (w/v) topical Lidocaine (Xylocaine®) and a 1.16% (w/v) topical Diclofenac (Voltaren®). A rodent model of painful peripheral diabetic neuropathy (PDN) that mimics human condition was created by inducing a diabetic state in the rat through the ablation of the insulin producing pancreatic beta cells. A single streptozotocin (STZ) injection destroys beta cells in rats and produces a diabetic state that over time progresses to painful Peripheral Diabetic Neuropathy (PDN).
Streptozotocin (STZ) was dissolved in citrate buffer (20 mM, pH 4.5) and administered at a dose of 60 mg/Kg, intraperitoneal, to induce pancreatic beta-cell death. Blood glucose level was measured once a week following injection, using the AccuSoft Blood Glucose Monitoring System. […] Hyperalgesia and allodynia, which are signs of diabetic neuropathic pain, were monitored using the von Frey test as described below. Von Frey measurements were recorded from both left and right paws. Only those with significant hyperalgesia as determined by reduced threshold, measured in grams, of paw withdrawal to the von Frey filament were enrolled in the study. […] During this time their health status was closely monitored.
The animals were randomly divided into 4 test groups (n=7 animals/group) including a vehicle control, a 5% (w/v) Lidocaine (Xylocaine®), a 1.16% (w/v) Diclofenac (Voltaren®), and a pharmaceutical composition with 4% (w/w) COMPOUND A. After baseline measurement, 50 mg of the test composition was applied on the entire left foot. […] The paw withdrawal thresholds of animals from mechanical tactile stimuli were measured using the Electrovonfrey anesthesiometer (Model 2290, IITC Life Science, Woodland Hills, Calif.). […] The force (g) required to elicit a crisp withdrawal response was recorded before dosing as a baseline measurement, and at 30 minutes post-dosing. […]

[3] = solubility studies of COMPOUND A (UV spectrophotometry at 312 nm); format: physicochemical
Source text: The spiro-oxindole compound of the invention, particularly, COMPOUND A, is relatively lipophilic and has poor water solubility.
Attempts to improve the solubility of COMPOUND A for use in a topical pharmaceutical composition, preferably as an ointment, were undertaken using a variety of solubilization techniques. The aim was to conduct a thorough investigation of the use of various pharmaceutically acceptable excipients to maximize the solubility of COMPOUND A. A series of solubility studies, which were performed using standard solubility testing techniques, was therefore carried out to identify proper excipient(s) and/or excipient combinations for achieving the target dosage strength for COMPOUND A. The solubility of COMPOUND A in these studies was determined by UV spectrophotometry using COMPOUND A's UV absorbance wavelength at 312 nm.

## O=C1N(Cc2ccc(C(F)(F)F)o2)c2ccccc2[C@]12COc1cc3c(cc12)OCO3 [COMPOUND A, (S)-1′-{[5-(trifluoromethyl)furan-2-yl]methyl}spiro[furo[2,3-f][1,3]benzodioxole-7,3′-indol]-2′(1′H)-one]
[1]; 4% (w/w) in 5% Transcutol P composition, 100 mg applied, 0.5 hours post-dosing
  paw withdrawal threshold, percent mean change from baseline (CFB): +26.3%
[1]; 4% (w/w) in 5% Transcutol P composition, 1 hour post-dosing
  paw withdrawal threshold, percent mean change from baseline (CFB): +18.1%
[1]; 4% (w/w) in 10% Transcutol P composition, 100 mg applied, 0.5 hours post-dosing
  paw withdrawal threshold, percent mean change from baseline (CFB): +33.8%
[1]; 4% (w/w) in 10% Transcutol P composition, 1 hour post-dosing
  paw withdrawal threshold, percent mean change from baseline (CFB): +26.7%
[1]; 4% (w/w) in 10% transcutol composition, from 0.5 hour
  duration of analgesic effects post-dosing: up to 2 hours
[2]
  paw withdrawal threshold of treated paw, percent mean change from baseline (CFB): 44.9%
[3]; aqueous solution with pH adjusted to 2, aqueous buffer, pH 2, 7.4 and 12, read-out: solubility on varying the pH of a solution
  solubility: < 5 µg/mL
[3]; water, read-out: water solubility
  solubility: < 5 µg/mL
